Test results reported in US4436904A, “Cephalosporins” (Kanto Ishi Pharmaceutical Co., Ltd., priority 1981, dated 1984).
Where two headings read alike, the source gives them in different places.

Legend:
Experiment in all cases: Minimum inhibitory concentration (MIC), standard method of the Japanese Chemotherapeutic Association
[1] = tested on: Staphylococcus epidermidis ATCC12228; format: cell-based; conditions: ATCC12228, Inoculum size: 10^6 cells/ml, weight concentration, read-out: Minimum Inhibitory Concentration (MIC)
[2] = tested on: Proteus morganii IID 602; format: cell-based; conditions: Morganella morganii
[3] = tested on: Pseudomonas aeruginosa IFO 13739; format: cell-based; conditions: IFO13739, Inoculum size: 10^6 cells/ml, weight concentration, read-out: Minimum Inhibitory Concentration (MIC)
[4] = tested on: Salmonella typhimurium IID 1000; format: cell-based; conditions: Salmonella enterica, read-out: Minimum Inhibitory Concentration (MIC)
[5] = tested on: Pseudomonas aeruginosa IFO 3080; format: cell-based
[6] = tested on: Staphylococcus aureus TERAJIMA; format: cell-based; conditions: read-out: Minimum Inhibitory Concentration (MIC)
[7] = tested on: Escherichia coli N I H J; format: cell-based; conditions: Inoculum size: 10^6 cells/ml, weight concentration, read-out: Minimum Inhibitory Concentration (MIC)
[8] = tested on: Salmonella enteritidis IID 604; format: cell-based; conditions: Salmonella enterica, read-out: Minimum Inhibitory Concentration (MIC)
[9] = tested on: Escherichia coli MEGAWA; format: cell-based; conditions: Escherichia coli; Inoculum size: 10^6 cells/ml; weight concentration; read-out: Minimum Inhibitory Concentration (MIC)
[10] = tested on: Proteus vulgaris; format: cell-based; conditions: read-out: Minimum Inhibitory Concentration (MIC)
[11] = tested on: Pseudomonas pudita IID 5121; format: cell-based; conditions: IID5121, Inoculum size: 10^6 cells/ml, weight concentration, read-out: Minimum Inhibitory Concentration (MIC)
[12] = tested on: Enterobacter cloacae IID 977; format: cell-based; conditions: IID977, Inoculum size: 10^6 cells/ml, weight concentration, read-out: Minimum Inhibitory Concentration (MIC)
[13] = tested on: Shigella dysenteriae IID 633; conditions: IID633, read-out: Minimum Inhibitory Concentration (MIC)
[14] = tested on: Serratia marcenscens IFO 12648; format: cell-based
[15] = tested on: Klebsiella pneumoniae IID 865; format: cell-based; conditions: IID865, Inoculum size: 10^6 cells/ml, weight concentration, read-out: Minimum Inhibitory Concentration (MIC)
[16] = tested on: Staphylococcus aureus 209-P; format: cell-based; conditions: read-out: Minimum Inhibitory Concentration (MIC)
[17] = tested on: Shigella sonnei IID 969; format: cell-based; conditions: IID969, Inoculum size: 10^6 cells/ml, weight concentration
[18] = tested on: Enterobacter aerogenes IID 5206; format: cell-based; conditions: Klebsiella aerogenes
[19] = tested on: Bacillus subtilis ATCC 6633; format: cell-based; conditions: ATCC6633, Inoculum size: 10^6 cells/ml, weight concentration, read-out: Minimum Inhibitory Concentration (MIC)
[20] = tested on: Shigella boydii IID 627; format: cell-based; conditions: IID627, Inoculum size: 10^6 cells/ml, weight concentration
[21] = tested on: Salmonella paratyphi IID 605; conditions: Salmonella enterica, IID605|PARATYPHI, read-out: Minimum Inhibitory Concentration (MIC)
[22] = Inoculum size: 10^6 cells/ml, weight concentration
[23] = IFO12648, read-out: Minimum Inhibitory Concentration (MIC)
[24] = IID5206, Inoculum size: 10^6 cells/ml, weight concentration, read-out: Minimum Inhibitory Concentration (MIC)
[25] = IID602, Inoculum size: 10^6 cells/ml, weight concentration, read-out: Minimum Inhibitory Concentration (MIC)
[26] = IFO3080, read-out: Minimum Inhibitory Concentration (MIC)

SMILES | MIC [1] [µg/mL] | MIC [3] [µg/mL] | MIC [4, 22] [µg/mL] | MIC [6] [µg/mL] | MIC [7] [µg/mL] | MIC [8] [µg/mL] | MIC [9] [µg/mL] | MIC [10] [µg/mL] | MIC [11] [µg/mL] | MIC [12] [µg/mL] | MIC [13] [µg/mL] | MIC [14, 23] [µg/mL] | MIC [15] [µg/mL] | MIC [16, 22] [µg/mL] | MIC [17] [µg/mL] | MIC [18, 24] [µg/mL] | MIC [19] [µg/mL] | MIC [20] [µg/mL] | MIC [21] [µg/mL] | MIC [2, 25] [µg/mL] | also measured
CC(=O)OCC1=C(C(=O)O)N2C(=O)C(NC(=O)[C@H](NC(=O)N3CCN(N=C4SCCS4)C3=O)c3ccccc3)C2SC1 (single isomer, unassigned) [KI-6203, sodium 7-{D-(-)-α-[(2-oxo-3-(1,3-dithiolan-2-imino)-imidazolidin-1-yl)-carboxamido]-phenylacetamido}-3-acetoxymethyl-3-cephem-4-carboxylate] | 0.39 | 12.5 | 3.13 | 1.56 | < 0.1 | 6.25 | 25 | 6.25 | 50 | 12.5 | 0.78 | 6.25 | 0.39 | 0.78 | 1.56 | 12.5 | 0.78 | 1.56 | 6.25 |  | MIC ([2]; IID602, read-out: Minimum Inhibitory Concentration (MIC)): 6.25 µg/mL; MIC ([5]; IFO3080, Inoculum size: 10^6 cells/ml, weight concentration, read-out: Minimum Inhibitory Concentration (MIC)): 3.13 µg/mL
Cn1nnnc1SCC1=C(C(=O)O)N2C(=O)C(NC(=O)[C@H](NC(=O)N3CCN(N=C4SCCS4)C3=O)c3ccccc3)C2SC1 (single isomer, unassigned) [KI-6248, sodium 7-{D-(-)-α-[(2-oxo-3-(1,3-dithiolan-2-imino)-imidazolidin-1-yl)-carboxamido]-phenylacetamido}-3-[(1-methyl-1,2,3,4-tetrazol-5-yl)-thiomethyl]-3-cephem-4-carboxylate] | 0.39 | 12.5 | 0.78 |  | < 0.1 |  | 6.25 | 1.56 | 25 | 3.13 | 0.2 |  | < 0.1 | 0.78 | 0.78 | 3.13 | 0.78 | 0.39 | 1.56 | 3.13 | MIC [5, 26]: 1.56 µg/mL; MIC [6, 22]: 0.78 µg/mL; MIC [8, 22]: 3.13 µg/mL; MIC ([14]; IFO12648, Inoculum size: 10^6 cells/ml, weight concentration, read-out: Minimum Inhibitory Concentration (MIC)): 3.13 µg/mL
Cn1nnnc1SCC1=C(C(=O)O)N2C(=O)C(NC(=O)[C@H](NC(=O)N3CCN(N=C4SCCS4)C3=O)c3ccc(O)cc3)C2SC1 (single isomer, unassigned) [KI-6269, sodium 7-{D-(-)-α-[(2-oxo-3-(1,3-dithiolan-2-imino)-imidazolidin-1-yl)-carboxamido]-4-hydroxyphenylacetamido}-3-[(1-methyl-1,2,3,4-tetrazol-5-yl)-thiomethyl]-3-cephem-4-carboxylate] | 0.39 | 6.25 |  | 1.56 | < 0.1 | 1.56 | 6.25 |  | 25 | 3.13 | < 0.1 | 1.56 | 0.2 |  | 0.2 |  | 0.78 | < 0.1 | 1.56 | 3.13 | MIC [4]: 1.56 µg/mL; MIC [5, 26]: 1.56 µg/mL; MIC [10, 22]: 0.78 µg/mL; MIC [16]: 1.56 µg/mL; MIC ([18]; IID5206, read-out: Minimum Inhibitory Concentration (MIC)): 1.56 µg/mL
